# Reference: EP0291751A2, “Pharmaceutical mixture preparation” (Wilhelm, Gerhard, Dr., priority 1987, dated 1988)
# System: Symptome des Heuschnupfens
# Details: alone or together, without Hydroxiphenylalkanolamin
structure (smiles),measurement,value
Cc1ncc(C[n+]2csc(CCO)c2C)c(N)n1 [Vitamin B₁],die Symptome des Heuschnupfens lindernde Wirkung,weder alleine noch gemeinsam miteinander
